This note sets out measurements from PubChem BioAssay AID200 (DTP/NCI, 2004).

Several values for one entry are separate records, joined by “and”; a condition that tells them apart may be missing. Equal values may be shown once. Inconclusive results and toxic doses are left out.

The test system of this experiment is B6C3F1 mice, B16 melanoma ip, median survival T/C. The experiment in a line: NCI In Vivo Anticancer Drug Screen. Data for tumor model B16 Melanoma (intraperitoneal) in B6C3F1 mice. Particulars: endpoint: median survival time, higher = longer survival. In a few lines:
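Antitumor effect was judged in mice with transplanted tumors by dividing the treated group's survival measure by that of vehicle controls.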

Where [1] appears, read: dose: 50.0 mg/kg/injection, schedule: Q01DX009 (ip), vehicle: saline with Tween-80.
The mark [2] stands for this setting: dose: 100.0 mg/kg/injection, schedule: Q01DX009 (ip), vehicle: saline with Tween-80.
[3] abbreviates: dose: 200.0 mg/kg/injection, schedule: Q01DX009 (ip), vehicle: saline with Tween-80.
Setting [4] is: dose: 25.0 mg/kg/injection, schedule: Q01DX009 (ip), vehicle: saline.
[5] abbreviates: dose: 50.0 mg/kg/injection, schedule: Q01DX009 (ip), vehicle: saline.
Setting [6] is: dose: 100.0 mg/kg/injection, schedule: Q01DX009 (ip), vehicle: saline.
The mark [7] stands for this setting: dose: 100.0 mg/kg/injection, schedule: Q01DX009 (ip), vehicle: Klucel (hydroxypropylcellulose) (HPC).

As for `N#CCS(=O)(=O)c1cccc[n+]1[O-]`, the T/C runs as follows: (dose: 25.0 mg/kg/injection, schedule: Q01DX009 (ip), vehicle: saline with Tween-80) 102 % of control; under setting [1], 101 % of control; under setting [2], 117 % of control; under setting [3], 121 % of control.

`CCOC(=O)NC(N)=O`: the T/C under setting [1] was 101 % of control; the T/C under setting [2] was 117 % of control; the T/C under setting [3] is 102 % of control; the T/C (dose: 400.0 mg/kg/injection, schedule: Q01DX009 (ip), vehicle: saline with Tween-80) is 105 % of control.

Regarding `O=NN(CCF)C(=O)NCCO`, the T/C is, setting by setting: (dose: 15.0 mg/kg/injection, schedule: Q01DX001 (ip), vehicle: saline) 181 % of control; (dose: 30.0 mg/kg/injection, schedule: Q01DX001 (ip), vehicle: saline) 221 % of control; (dose: 60.0 mg/kg/injection, schedule: Q01DX001 (ip), vehicle: saline) 250 % of control.

`COc1cccc2c1C(=O)c1c(O)c3c(c(O)c1C2=O)C[C@@](O)(/C(C)=N/NC(N)=S)C[C@@H]3OC1CC(N)C(O)C(C)O1` (stereo partly drawn): the T/C was 155 % of control and 166 % of control (dose: 12.5 mg/kg/injection, schedule: Q01DX001 (ip), vehicle: water); 185 % of control and 202 % of control (dose: 25.0 mg/kg/injection, schedule: Q01DX001 (ip), vehicle: water); 185 % of control and 220 % of control (dose: 50.0 mg/kg/injection, schedule: Q01DX001 (ip), vehicle: water); 201 % of control (dose: 100.0 mg/kg/injection, schedule: Q01DX001 (ip), vehicle: water).

On to `COc1cc2cc(c1Cl)N(C)C(=O)CC(OC(=O)C(C)N(C)C(=O)C(C)C)C1(C)OC1C(C)C1CC(O)(NC(=O)O1)C(OC)/C=C/C=C(C)C2OC` (stereo not drawn), for which the T/C by setting is: (dose: 2.0 micrograms/kg/injection, schedule: Q01DX009 (ip), vehicle: Klucel (hydroxypropylcellulose) (HPC)) 196 % of control; (dose: 4.0 micrograms/kg/injection, schedule: Q01DX009 (ip), vehicle: Klucel (hydroxypropylcellulose) (HPC)) 157 % of control and 165 % of control and 213 % of control; (dose: 4.0 micrograms/kg/injection, schedule: Q01DX009 (ip), vehicle: distilled water + alcohol) 103 % of control; (dose: 8.0 micrograms/kg/injection, schedule: Q01DX009 (ip), vehicle: Klucel (hydroxypropylcellulose) (HPC)) 172 % of control and 185 % of control and 245 % of control; (dose: 8.0 micrograms/kg/injection, schedule: Q01DX009 (ip), vehicle: distilled water + alcohol) 101 % of control; (dose: 16.0 micrograms/kg/injection, schedule: Q01DX009 (ip), vehicle: Klucel (hydroxypropylcellulose) (HPC)) 172 % of control and 194 % of control and 232 % of control. Besides, the T/C reads like this: (dose: 16.0 micrograms/kg/injection, schedule: Q01DX009 (ip), vehicle: distilled water + alcohol) 114 % of control; (dose: 32.0 micrograms/kg/injection, schedule: Q01DX009 (ip), vehicle: Klucel (hydroxypropylcellulose) (HPC)) 183 % of control and 207 % of control; (dose: 32.0 micrograms/kg/injection, schedule: Q01DX009 (ip), vehicle: distilled water + alcohol) 119 % of control and 122 % of control; (dose: 64.0 micrograms/kg/injection, schedule: Q01DX009 (ip), vehicle: distilled water + alcohol) 105 % of control; (dose: 128.0 micrograms/kg/injection, schedule: Q01DX009 (ip), vehicle: distilled water + alcohol) 114 % of control.

On to `CCCCCCCCCCCCOP(N)(=O)OCCCCCCCCCCCC`, for which the T/C is 100 % of control under setting [4], 90 % of control under setting [5] and 89 % of control under setting [6].

As for `CCCCCCCCCCCC(=O)NC1CC(O[C@H]2C[C@](O)(C(=O)CO)Cc3c(O)c4c(c(O)c32)C(=O)c2c(OC)cccc2C4=O)OC(C)C1O` (stereo partly drawn), the T/C is 171 % of control and 294 % of control (dose: 3.0 mg/kg/injection, schedule: Q01DX009 (ip), vehicle: saline); 250 % of control and 333 % of control (dose: 6.0 mg/kg/injection, schedule: Q01DX009 (ip), vehicle: saline); 333 % of control and 357 % of control (dose: 12.0 mg/kg/injection, schedule: Q01DX009 (ip), vehicle: saline); 122 % of control and 357 % of control (dose: 24.0 mg/kg/injection, schedule: Q01DX009 (ip), vehicle: saline); 94 % of control (dose: 48.0 mg/kg/injection, schedule: Q01DX009 (ip), vehicle: saline).

On to `CC(C)(C)OC(=O)NC(CO)C(=O)O` (stereo not drawn), for which the T/C under setting [1] was 95 % of control, the T/C under setting [2] is 95 % of control and the T/C under setting [3] was 90 % of control.

As for `COc1ccc2[nH]c3c(c2c1)CCNC3CC(C)CCC=C(C)C` (stereo not drawn), the T/C is, setting by setting: (dose: 6.25 mg/kg/injection, schedule: Q01DX009 (ip), vehicle: Klucel (hydroxypropylcellulose) (HPC)) 99 % of control; (dose: 12.5 mg/kg/injection, schedule: Q01DX009 (ip), vehicle: Klucel (hydroxypropylcellulose) (HPC)) 88 % of control; (dose: 25.0 mg/kg/injection, schedule: Q01DX009 (ip), vehicle: Klucel (hydroxypropylcellulose) (HPC)) 97 % of control; (dose: 50.0 mg/kg/injection, schedule: Q01DX009 (ip), vehicle: Klucel (hydroxypropylcellulose) (HPC)) 102 % of control; under setting [7], 105 % of control.

For the molecule `CC(C)C(NC(=O)OC(C)(C)C)C(=O)ON1C(=O)CCC1=O` (stereo not drawn), the T/C was 91 % of control under setting [1] and 86 % of control under setting [2].

Turning to `C=CCCC(=O)CCCC(=O)O[C@@H]1[C@@H]2[C@H](CC1(C)C)[C@H](O)[C@@]13O[C@@H]1[C@H](O)[C@@]1(CO1)[C@@]23C`, the T/C is 97 % of control (dose: 3.12 micrograms/kg/injection, schedule: Q01DX009 (ip), vehicle: saline); 91 % of control (dose: 6.25 micrograms/kg/injection, schedule: Q01DX009 (ip), vehicle: saline); 103 % of control (dose: 12.5 micrograms/kg/injection, schedule: Q01DX009 (ip), vehicle: saline); 98 % of control (dose: 25.0 micrograms/kg/injection, schedule: Q01DX009 (ip), vehicle: Klucel (hydroxypropylcellulose) (HPC)); 93 % of control (dose: 25.0 micrograms/kg/injection, schedule: Q01DX009 (ip), vehicle: saline); 91 % of control (dose: 50.0 micrograms/kg/injection, schedule: Q01DX009 (ip), vehicle: Klucel (hydroxypropylcellulose) (HPC)). Also, the T/C by setting is: (dose: 50.0 micrograms/kg/injection, schedule: Q01DX009 (ip), vehicle: saline) 97 % of control; (dose: 100.0 micrograms/kg/injection, schedule: Q01DX009 (ip), vehicle: saline) 98 % of control; (dose: 200.0 micrograms/kg/injection, schedule: Q01DX009 (ip), vehicle: Klucel (hydroxypropylcellulose) (HPC)) 98 % of control; (dose: 400.0 micrograms/kg/injection, schedule: Q01DX009 (ip), vehicle: Klucel (hydroxypropylcellulose) (HPC)) 96 % of control.

On to `CC(=O)CC(=O)CCC(=O)O`, for which the T/C runs as follows: under setting [4], 97 % of control; under setting [5], 97 % of control; under setting [6], 93 % of control.

As to `CC(C)(C)OC(=O)NC(Cc1ccc(O)cc1)C(=O)ON1C(=O)CCC1=O` (stereo not drawn), the T/C was 101 % of control under setting [7] and 96 % of control (dose: 200.0 mg/kg/injection, schedule: Q01DX009 (ip), vehicle: Klucel (hydroxypropylcellulose) (HPC)).

As for `CC(=O)O[C@H]1C(=O)[C@@]2(C)C(C(OC(=O)c3ccccc3)[C@]3(O)CC(OC(=O)[C@H](OC(=O)CCC(=O)O)C(NC(=O)c4ccccc4)c4ccccc4)C(C)=C1C3(C)C)C1(OC(C)=O)COC1C[C@@H]2OC(=O)CCC(=O)O` (stereo partly drawn), the T/C runs as follows: (dose: 2.75 mg/kg/injection, schedule: Q01DX009 (ip), vehicle: sodium bicarbonate) 109 % of control; (dose: 2.75 mg/kg/injection, schedule: Q01DX009 (ip), vehicle: water) 120 % of control; (dose: 5.5 mg/kg/injection, schedule: Q01DX009 (ip), vehicle: sodium bicarbonate) 113 % of control; (dose: 5.5 mg/kg/injection, schedule: Q01DX009 (ip), vehicle: water) 114 % of control; (dose: 11.0 mg/kg/injection, schedule: Q01DX009 (ip), vehicle: sodium bicarbonate) 124 % of control; (dose: 22.0 mg/kg/injection, schedule: Q01DX009 (ip), vehicle: sodium bicarbonate) 105 % of control. The T/C was 109 % of control (dose: 22.0 mg/kg/injection, schedule: Q01DX009 (ip), vehicle: water); 114 % of control (dose: 44.0 mg/kg/injection, schedule: Q01DX009 (ip), vehicle: sodium bicarbonate); 166 % of control (dose: 44.0 mg/kg/injection, schedule: Q01DX009 (ip), vehicle: water).
